Measured values published in patent US11111238B2, “Coumarin derivatives, processes for their preparation and uses thereof for the treatment of cancer” (Lead Discovery Center GmbH, priority 2017, dated 2021).

Each compound was assayed against mitochondrial RNA-polymerase (POLRMT) (Mus musculus, UniProt Q8BKF1) (assay: Homogeneous TR-FRET assay for mitochondrial transcription activity). Settings: homogeneous TR-FRET assay according to Example 4; activity class.
Format: biochemical
From the text: The TR-FRET assay was basically conducted as described in WO2016/193,231A1, especially as described in example 1 (hereby incorporated by reference). With respect to the background of the mitochondrial transcription it is referred to Falkenberg et al. (2002) and Posse et al. (Posse et al., 2015). The method monitors the activity of mitochondrial RNA-polymerase via detection of the formation of its product, a 407 bp long RNA sequence. Detection of the product is facilitated by hybridization of two DNA-oligonucleotide probes to specific and adjacent sequences within the RNA product sequence. Upon annealing of the probes, two fluorophores that are coupled directly to an acceptor nucleotide probe (ATT0647, 5′) or introduced via a coupled streptavidin interacting with a biotinylated donor nucleotide probe on the other side (Europium cryptate, 3′) are brought into sufficient proximity to serve as a fluorescence-donor-acceptor pair as generally described in Walters and Namchuk (2003). Thus, a FRET signal at 665 nm is generated upon excitation at 340 nm.
Briefly, the protocol described here was applied for screening and activity determination in a low-volume 384-well microtiter plate with non-binding surface. For high-throughput application in the 1536-well microtiter plate format, volumes of the reagent mixes were adjusted, maintaining the volumetric ratio. Proteins POLRMT (NM_172551.3), TFAM (NM_009360.4) and TFB2 M (NM_008249.4) were diluted from their stocks to working concentrations of 150 nM, 1.8 μM and 330 nM respectively, in a dilution buffer containing 100 mM Tris-HCl pH 8.0, 200 mM NaCl, 10% (v/v) glycerole, 2 mM glutathione (GSH), 0.5 mM EDTA and 0.1 mg/mL BSA. Protein dilutions and template DNA, comprising a pUC18 plasmid encoding the mitochondrial light strand promoter, restriction linearized proximal to the promoter 3′-end (pUC-LSP), were mixed at the twofold final assay-concentration in a reaction buffer, containing 10 mM Tris-HCl pH 7.5, 10 mM MgCl2, 40 mM NaCl, 2 mM GSH, 0.01% (w/v) Tween-20 and 0.1 mg/mL BSA.
5 μL of this mix were dispensed, depending on the chosen microtiter plate format, using multi-channel pipettes or a Multidrop® dispenser (Thermo Fisher Scientific, Waltham Mass.) into the wells of a microtiter plate and incubated at room temperature (RT) for 10 min. Chemical compounds under scrutiny in the assay were applied using contact-free acoustic droplet-dispensing (Echo520® Labcyte Inc., Sunnyvale Calif.) from 10 mM compound stocks in 100% DMSO, to a final concentration of 10 μM or in serial dilution series of the required concentration range. Equal amounts of DMSO without any compound were added to positive control samples, followed by an incubation step at RT for 10 min.
The enzymatic reaction was started by the addition of 5 μL of a mix of […] in reaction buffer to a final concentration of 500 μM each. No nucleotide mix was added to negative control samples. The content of the wells was mixed using a VarioTeleshaker™ (Thermo Fisher Scientific, Waltham Mass.) at 1,500 rpm for 45 sec after which the microtiter plate was centrifuged at 500×g for 1 min. The samples were incubated for 2 h at RT with humidity control to avoid evaporation. The detection reagents were prepared in a buffer that was composed, such that the enzymatic reaction was terminated due to chelating of Mg-ions and increased ionic strength, containing 50 mM Tris-HCl pH 7.5, 700 mM NaCl, 20 mM EDTA, and 0.01% (w/v) Tween-20. Importantly Eu-cryptate-coupled streptavidin had to be pre-incubated with a 100-fold molar excess of a random sequence oligonucleotide for 10 min at RT in the dark to block unspecific binding of single stranded RNA to the protein. Subsequently, the blocked streptavidin(—Eu) was mixed with the DNA-probes on ice and kept away from light until use. […]

Sequence of mitochondrial RNA-polymerase (POLRMT) (Q8BKF1 42-1207): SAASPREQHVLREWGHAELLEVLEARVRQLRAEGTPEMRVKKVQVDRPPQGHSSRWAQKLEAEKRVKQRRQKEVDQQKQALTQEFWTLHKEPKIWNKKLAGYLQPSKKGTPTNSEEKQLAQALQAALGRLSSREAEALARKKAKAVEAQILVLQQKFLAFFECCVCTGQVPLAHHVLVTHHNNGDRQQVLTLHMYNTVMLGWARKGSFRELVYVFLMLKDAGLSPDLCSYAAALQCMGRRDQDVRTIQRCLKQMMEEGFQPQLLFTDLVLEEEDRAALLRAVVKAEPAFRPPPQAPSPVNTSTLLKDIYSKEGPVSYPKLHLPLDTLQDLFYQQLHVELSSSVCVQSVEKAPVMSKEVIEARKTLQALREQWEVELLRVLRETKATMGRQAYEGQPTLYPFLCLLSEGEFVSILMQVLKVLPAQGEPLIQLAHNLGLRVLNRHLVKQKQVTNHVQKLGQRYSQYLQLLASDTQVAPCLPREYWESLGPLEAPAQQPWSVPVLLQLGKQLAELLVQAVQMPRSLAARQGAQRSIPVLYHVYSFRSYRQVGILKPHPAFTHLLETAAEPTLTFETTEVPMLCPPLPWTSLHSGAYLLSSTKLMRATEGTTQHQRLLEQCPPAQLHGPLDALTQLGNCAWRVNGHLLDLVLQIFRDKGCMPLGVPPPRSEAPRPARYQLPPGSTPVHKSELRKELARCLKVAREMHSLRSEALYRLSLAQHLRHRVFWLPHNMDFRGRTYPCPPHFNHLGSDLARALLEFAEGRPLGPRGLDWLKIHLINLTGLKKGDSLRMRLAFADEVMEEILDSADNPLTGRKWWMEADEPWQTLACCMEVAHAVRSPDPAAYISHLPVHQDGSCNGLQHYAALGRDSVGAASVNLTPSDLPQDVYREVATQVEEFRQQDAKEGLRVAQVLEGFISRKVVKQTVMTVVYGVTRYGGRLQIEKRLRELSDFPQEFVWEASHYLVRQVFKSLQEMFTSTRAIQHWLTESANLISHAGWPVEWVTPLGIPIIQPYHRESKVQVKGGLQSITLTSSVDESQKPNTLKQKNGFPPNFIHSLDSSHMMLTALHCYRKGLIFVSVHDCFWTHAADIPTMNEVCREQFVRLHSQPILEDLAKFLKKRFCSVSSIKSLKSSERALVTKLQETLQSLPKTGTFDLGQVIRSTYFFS

IC50 | SMILES
< 20 nM | CC(Oc1ccc2c(-c3ccccc3Cl)cc(=O)oc2c1)C(=O)N1CCCC(C#N)C1 (stereo not drawn) [Compound 48, 1-[2-[4-(2-chlorophenyl)-2-oxo-chromen-7-yl]oxypropanoyl]piperidine-3-carbonitrile]
< 20 nM | CC(C)NC(=O)C(C)Oc1ccc2c(-c3cccc(F)c3Cl)cc(=O)oc2c1 (stereo not drawn) [Compound 49, 2-[4-(2-chloro-3-fluoro-phenyl)-2-oxo-chromen-7-yl]oxy-N-isopropyl-propanamide]
< 20 nM | CC(Oc1ccc2c(-c3cccc(F)c3Cl)cc(=O)oc2c1)C(=O)N1CCC[C@H](C(=O)O)C1 (stereo partly drawn) [Compound 50, (3S)-1-[2-[4-(2-chloro-3-fluoro-phenyl)-2-oxo-chromen-7-yl]oxypropanoyl]piperidine-3-carboxylic acid]
< 20 nM | CNC(=O)C(C)Oc1ccc2c(-c3ccccc3Cl)cc(=O)oc2c1 (stereo not drawn) [Compound 51, 2-[4-(2-chlorophenyl)-2-oxo-chromen-7-yl]oxy-N-methyl-propanamide]
< 20 nM | CC(Oc1ccc2c(-c3cccc(F)c3Cl)cc(=O)oc2c1)C(=O)N1CCCC(S(N)(=O)=O)C1 (stereo not drawn) [Compound 52, 1-[2-[4-(2-chloro-3-fluoro-phenyl)-2-oxo-chromen-7-yl]oxypropanoyl]piperidine-3-sulfonamide]
< 20 nM | Cc1ccccc1-c1cc(=O)oc2cc(OC(C)C(=O)N3CCC[C@@H](C(=O)O)C3)ccc12 (stereo partly drawn) [Compound 53, (3R)-1-[2-[4-(o-tolyl)-2-oxo-chromen-7-yl]oxypropanoyl]piperidine-3-carboxylic acid]
< 20 nM | Cc1ccccc1-c1cc(=O)oc2cc(O[C@H](C)C(=O)OC(C)C)ccc12 [Compound 55, (R)-isopropyl 2-((2-oxo-4-(o-tolyl)-2H-chromen-7-yl)oxy)propanoate]
20 to 100 nM | CCOC(=O)C(C)Oc1ccc2c(-c3cccc(F)c3Cl)cc(=O)oc2c1 (stereo not drawn) [Compound 57, ethyl 2-[4-(2-chloro-3-fluoro-phenyl)-2-oxo-chromen-7-yl]oxypropanoate]
20 to 100 nM | CCOC(=O)C(C)Oc1ccc2c(-c3ccccc3C)cc(=O)oc2c1 (stereo not drawn) [Compound 58, ethyl 2-[4-(o-tolyl)-2-oxo-chromen-7-yl]oxypropanoate]
20 to 100 nM | Cc1ccccc1-c1cc(=O)oc2cc(OC(C)C(=O)N3CCC(CC(=O)O)CC3)ccc12 (stereo not drawn) [Compound 60, 2-[1-[2-[4-(o-tolyl)-2-oxo-chromen-7-yl]oxypropanoyl]-4-piperidyl]acetic acid]
20 to 100 nM | CC(Oc1ccc2c(-c3cccc(F)c3Cl)cc(=O)oc2c1)C(=O)NC1CC1 (stereo not drawn) [Compound 61, 2-[4-(2-chloro-3-fluoro-phenyl)-2-oxo-chromen-7-yl]oxy-N-cyclopropyl-propanamide]
20 to 100 nM | Cc1ccccc1-c1cc(=O)oc2cc(OC(C)C(=O)N3CCC(S(N)(=O)=O)C3)ccc12 (stereo not drawn) [Compound 63, 1-[2-[4-(o-tolyl)-2-oxo-chromen-7-yl]oxypropanoyl]pyrrolidine-3-sulfonamide]
20 to 100 nM | CC(C)OC(=O)[C@@H](C)Oc1ccc2c(-c3ccccc3Cl)cc(=O)oc2c1 [Compound 64, isopropyl (2R)-2-[4-(2-chlorophenyl)-2-oxo-chromen-7-yl]oxypropanoate]
20 to 100 nM | CC(C)NC(=O)C(C)Oc1ccc2c(-c3ccc(F)cc3Cl)cc(=O)oc2c1 (stereo not drawn) [Compound 65, 2-[4-(2-chloro-4-fluoro-phenyl)-2-oxo-chromen-7-yl]oxy-N-isopropyl-propanamide]
20 to 100 nM | CC(Oc1ccc2c(-c3ccccc3Cl)cc(=O)oc2c1)C(=O)N1CCC[C@@H](C(=O)N(C)C)C1 (stereo partly drawn) [Compound 67, (3R)-1-[2-[4-(2-chlorophenyl)-2-oxo-chromen-7-yl]oxypropanoyl]-N,N-dimethyl-piperidine-3-carboxamide]
20 to 100 nM | CCNC(=O)C(C)Oc1ccc2c(-c3cccc(F)c3Cl)cc(=O)oc2c1 (stereo not drawn) [Compound 68, 2-[4-(2-chloro-3-fluoro-phenyl)-2-oxo-chromen-7-yl]oxy-N-ethyl-propanamide]
20 to 100 nM | Cc1ccccc1-c1cc(=O)oc2cc(OC(C)C(=O)N3CCC(F)(F)CC3)ccc12 (stereo not drawn) [Compound 71, 7-[2-(4,4-difluoro-1-piperidyl)-1-methyl-2-oxo-ethoxy]-4-(o-tolyl)chromen-2-one]
20 to 100 nM | Cc1ccccc1-c1cc(=O)oc2cc(OC(C)C(=O)N3CCCC(CC(=O)O)C3)ccc12 (stereo not drawn) [Compound 72, 2-[1-[2-[4-(o-tolyl)-2-oxo-chromen-7-yl]oxypropanoyl]-3-piperidyl]acetic acid]
20 to 100 nM | Cc1ccccc1-c1cc(=O)oc2cc(OC(C)C(=O)N3CCCC(S(C)(=N)=O)C3)ccc12 (stereo not drawn) [Compound 73, 7-[1-methyl-2-[3-(methylsulfonimidoyl)-1-piperidyl]-2-oxo-ethoxy]-4-(o-tolyl)chromen-2-one]
20 to 100 nM | CC(Oc1ccc2c(-c3ccccc3Cl)cc(=O)oc2c1)C(=O)N1CCC(F)(F)CC1 (stereo not drawn) [Compound 74, 4-(2-chlorophenyl)-7-[2-(4,4-difluoro-1-piperidyl)-1-methyl-2-oxo-ethoxy]chromen-2-one]
20 to 100 nM | CCOC(=O)C1(C)CCCN(C(=O)C(C)Oc2ccc3c(-c4ccccc4Cl)cc(=O)oc3c2)C1 (stereo not drawn) [Compound 75, ethyl 1-[2-[4-(2-chlorophenyl)-2-oxo-chromen-7-yl]oxypropanoyl]-3-methyl-piperidine-3-carboxylate]
20 to 100 nM | CC(Oc1ccc2c(-c3ccccc3Cl)cc(=O)oc2c1)C(=O)N1CCC[C@H](C(=O)N(C)C)C1 (stereo partly drawn) [Compound 76, (3S)-1-[2-[4-(2-chlorophenyl)-2-oxo-chromen-7-yl]oxypropanoyl]-N,N-dimethyl-piperidine-3-carboxamide]
20 to 100 nM | CC(Oc1ccc2c(-c3ccccc3Cl)cc(=O)oc2c1)C(=O)N1CCC(S(N)(=O)=O)C1 (stereo not drawn) [Compound 77, 1-[2-[4-(2-chlorophenyl)-2-oxo-chromen-7-yl]oxypropanoyl]pyrrolidine-3-sulfonamide]
20 to 100 nM | CCOC(=O)C(C)Oc1ccc2c(-c3ccc(F)cc3Cl)cc(=O)oc2c1 (stereo not drawn) [Compound 82, Ethyl 2-((4-(2-chloro-4-fluorophenyl)-2-oxo-2H-chromen-7-yl)oxy)propanoate]
20 to 100 nM | COC(=O)CC1CCN(C(=O)C(C)Oc2ccc3c(-c4ccccc4C)cc(=O)oc3c2)CC1 (stereo not drawn) [Compound 83, methyl 2-[1-[2-[4-(o-tolyl)-2-oxo-chromen-7-yl]oxypropanoyl]-4-piperidyl]acetate]
20 to 100 nM | CCOC(=O)CC1CCCN(C(=O)C(C)Oc2ccc3c(-c4ccccc4C)cc(=O)oc3c2)C1 (stereo not drawn) [Compound 87, ethyl 2-[1-[2-[4-(o-tolyl)-2-oxo-chromen-7-yl]oxypropanoyl]-3-piperidyl]acetate]
20 to 100 nM | CCOC(=O)C1(C)CCCN(C(=O)C(C)Oc2ccc3c(-c4ccccc4C)cc(=O)oc3c2)C1 (stereo not drawn) [Compound 88, ethyl 3-methyl-1-[2-[4-(o-tolyl)-2-oxo-chromen-7-yl]oxypropanoyl]piperidine-3-carboxylate]
20 to 100 nM | CC(Oc1ccc2c(-c3ccc(F)cc3Cl)cc(=O)oc2c1)C(=O)NC1CC1 (stereo not drawn) [Compound 90, 2-[4-(2-chloro-4-fluoro-phenyl)-2-oxo-chromen-7-yl]oxy-N-cyclopropyl-propanamide]
20 to 100 nM | CC(Oc1ccc2c(-c3cccc(F)c3Cl)cc(=O)oc2c1)C(=O)O (stereo not drawn) [Compound 94, 2-[4-(2-chloro-3-fluoro-phenyl)-2-oxo-chromen-7-yl]oxypropanoic acid]
100 to 1000 nM | CCOC(=O)C1(C)CCCN(C(=O)C(C)Oc2ccc3c(-c4ccc(F)cc4Cl)cc(=O)oc3c2)C1 (stereo not drawn) [Compound 95, ethyl 1-[2-[4-(2-chloro-4-fluoro-phenyl)-2-oxo-chromen-7-yl]oxypropanoyl]-3-methyl-piperidine-3-carboxylate]
